According to ChEMBL document CHEMBL1201862, “PubChem BioAssay data set” (2004):
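Protocol summary: plate cells (96-well), add compound at 5 concentrations, incubate 48 h, interpolate endpoints linearly. GI50 = concentration required for 50% inhibition of growth.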 The source made the active and inactive calls. Cut-off read from the data, not from the text of the source: active = GI50 up to about 1.1 µM and inactive = higher.

Tests used:
Experiment in all cases: NCI anticancer screen, dose series, 48 h
A498 = tested on: A498
ACHN = tested on: ACHN
HCT-15 = tested on: HCT-15
HOP-62 = tested on: HOP-62
HOP-92 = tested on: HOP-92
K562 = tested on: K562
MOLT-4 = tested on: MOLT-4
OVCAR-4 = tested on: OVCAR-4
OVCAR-5 = tested on: OVCAR-5
SF-295 = tested on: SF-295
SF-539 = tested on: SF-539
SK-MEL-28 = tested on: SK-MEL-28
SK-MEL-2 = tested on: SK-MEL-2
SNB-75 = tested on: SNB-75
U-251 = tested on: U-251
DU-145 = tested on: DU-145
MCF7 = tested on: MCF7
NCI/ADR-RES = tested on: NCI/ADR-RES
PC-3 = tested on: PC-3

| SMILES | GI50 (A498) | GI50 (ACHN) | GI50 (HCT-15) | GI50 (HOP-62) | GI50 (HOP-92) | GI50 (K562) | GI50 (MOLT-4) | GI50 (OVCAR-4) | GI50 (OVCAR-5) | GI50 (SF-295) | GI50 (SF-539) | GI50 (SK-MEL-28) | GI50 (SK-MEL-2) | GI50 (SNB-75) | GI50 (U-251) | GI50 (DU-145) | GI50 (MCF7) | GI50 (NCI/ADR-RES) | GI50 (PC-3) |
| --- | --- | --- | --- | --- | --- | --- | --- | --- | --- | --- | --- | --- | --- | --- | --- | --- | --- | --- | --- |
| O=C(/C=C/c1ccc(Cl)c(Cl)c1)c1ccc2ccccc2c1 | > 100 µM (inactive) | > 100 µM (inactive) | > 100 µM | > 100 µM (inactive) | > 100 µM (inactive) | > 100 µM (inactive) | 48.9 µM (inactive) | > 100 µM (inactive) | > 100 µM (inactive) | > 100 µM (inactive) | > 100 µM (inactive) | > 100 µM (inactive) | > 100 µM (inactive) | 52 µM (inactive) | > 100 µM (inactive) |  |  |  |  |
| CCOc1ccc(NC(=O)/C(=C/c2ccccc2)C(C)=O)cc1 | 18.1 µM (inactive) | 15.3 µM (inactive) | 8.99 µM | 16.3 µM (inactive) | 14.1 µM (inactive) | 5.27 µM (inactive) | 3.73 µM (inactive) | 13.4 µM (inactive) | 17.6 µM (inactive) | 13.5 µM (inactive) | 10.1 µM (inactive) | 12.9 µM (inactive) | 13.2 µM (inactive) | 4.59 µM (inactive) | 12.6 µM (inactive) |  |  |  |  |
| CC1(C)CC(=O)C(=CNc2nc(-c3ccc(Br)cc3)cs2)C(=O)C1 |  | 37 µM (inactive) | 21.2 µM | 31.3 µM (inactive) | 33 µM (inactive) |  | 27.9 µM (inactive) | 37.5 µM (inactive) | 42.5 µM (inactive) | 39 µM (inactive) | 24.8 µM (inactive) | 34 µM (inactive) | 19.4 µM (inactive) | 6.35 µM (inactive) | 30.6 µM (inactive) | 43.9 µM (inactive) | 32.6 µM (inactive) | 37.8 µM (inactive) | 26.8 µM (inactive) |
| COc1cc2c(cc1C)[n+]([O-])c(C)c(C(=O)C/C(=N/NC(=O)C[N+](C)(C)C)C(=O)Nc1cccc(Cl)c1C)[n+]2[O-] | > 100 µM (inactive) | > 100 µM (inactive) | > 100 µM | > 100 µM (inactive) | > 100 µM (inactive) | > 100 µM (inactive) | > 100 µM (inactive) | > 100 µM (inactive) | > 100 µM (inactive) | > 100 µM (inactive) | > 100 µM (inactive) | > 100 µM (inactive) | > 100 µM (inactive) | > 100 µM (inactive) | > 100 µM (inactive) |  |  |  |  |
| C(=C\c1c2oc(-c3ccccc3)cc(-c3ccccc3)c-2c2ccccc12)/C=C1\c2ccccc2-c2c(-c3ccccc3)cc(-c3ccccc3)[o+]c21.[O-][Cl+3]([O-])([O-])[O-] | > 100 µM (inactive) | > 100 µM (inactive) | > 100 µM | > 100 µM (inactive) | > 100 µM (inactive) | > 100 µM (inactive) | > 100 µM (inactive) | > 100 µM (inactive) | > 100 µM (inactive) | > 100 µM (inactive) | > 100 µM (inactive) | > 100 µM (inactive) | > 100 µM (inactive) | 45.9 µM (inactive) | > 100 µM (inactive) |  |  |  |  |
| COc1cccc2c1C1=CC(=O)CCC1C(C)(C)O2 (configuration not stated) | > 100 µM (inactive) | > 100 µM (inactive) | > 100 µM | > 100 µM (inactive) | > 100 µM (inactive) | > 100 µM (inactive) | > 100 µM (inactive) | > 100 µM (inactive) | > 100 µM (inactive) | > 100 µM (inactive) | > 100 µM (inactive) | > 100 µM (inactive) | > 100 µM (inactive) | > 100 µM (inactive) | 45.3 µM (inactive) |  |  |  |  |
